Reference: patent publication US20210114975A1, “THERAPEUTIC COMPOUND AND METHODS” (Regents of the University of Minnesota, priority 2019, published 2021)

Assays:
Assay type in all cases: cell-based
[1] = tested on: 4T1 breast cancer cell line; assay: Inhibition of pyruvate-driven respiration in permeabilized cells (Seahorse XFe96); conditions: varying concentrations
[2] = tested on: MCT4 expressing MDA-MB-231 cell line; assay: Mitochondrial stress test (Seahorse XFe96); conditions: 100, 50 and 30 μM, vs DMSO control
Procedure: (§1) The metabolic profile of compound 1 was evaluated via mitochondrial stress test (MST) and glycolytic stress test (GST) on MCT4 expressing MDA-MB-231 and MCT1 expressing WiDr cell lines using Seahorse XFe96® analyzer (FIGS. 1A and 1B). 20,000 cells/well were seeded in 96-well microplates. MST was performed according to the manufacturer's protocol. The mitochondrial parameters: maximal respiration, ATP production, proton leak and spare respiratory capacity were calculated using wave software. DMSO was used as the negative control. A concentration study was performed in MDA-MB-231 cell line using compound 1 at 100, 50 and 30 μM concentrations. […] GST was also performed according to the manufacturer's protocol. The glycolytic parameters: glycolysis, glycolytic capacity, and glycolytic reserve were calculated using wave software, with DMSO as a negative control. In this case also, a concentration study was carried out at 100, 50 and 30 μM in MDA-MB-231 cell line.

[3] = tested on: MCT1 expressing WiDr cell line; assay: Mitochondrial stress test (Seahorse XFe96); conditions: vs DMSO control
Procedure: as §1

[4] = tested on: MCT4 expressing MDA-MB-231 cell line; assay: Glycolysis stress test (Seahorse XFe96); conditions: 100, 50 and 30 μM, vs DMSO control
Procedure: as §1

Q: With `COc1cc(N(c2ccc(F)cc2)c2ccc(F)cc2)ccc1/C=C(\C#N)C(=O)O` [Compound 2, (E)-3-(4-(bis(4-fluorophenyl)amino)-2-methoxyphenyl)-2-cyanoacrylic Acid] as the compound, how does the “oxygen consumption rate (OCR) after compound injection” value ([1]; intact 4T1 cells, before rPFO) read?
A: Acute decreases in OCR were observed

Q: And the “inhibition of pyruvate-driven respiration” value ([1]; rPFO-permeabilized 4T1 cells, FCCP-stimulated pyruvate/malate/DCA)?
A: inhibited pyruvate-driven respiration in permeabilized cells in a dose dependent fashion

Q: `N#C/C(=C\c1ccc(N(c2ccc(F)cc2)c2ccc(F)cc2)cc1)C(=O)O` [Compound 1, (E)-3-(4-(bis(4-fluorophenyl)amino)phenyl)-2-cyanoacrylic Acid] was tested. Which ATP production [2] did it give?
A: significantly decreased

Q: And the maximal respiration [2]?
A: significantly decreased

Q: And the spare respiratory capacity [2]?
A: significantly decreased

Q: What about the ATP production [3] of the same compound?
A: significantly decreased

Q: What about the maximal respiration [3] of the same compound?
A: significantly decreased

Q: And the spare respiratory capacity [3]?
A: significantly decreased

Q: And the glycolytic capacity [4]?
A: significantly decreased

Q: What about the glycolytic reserve [4] of the same compound?
A: significantly decreased
